Reference: PubChem BioAssay AID2060498 (Molecular Pharmacology Branch, DTP, NCI, 2025)
One block for each compound: values may come before it.

System: 171881-019-R-J1-PDC tumor spheroids, viability
Test: Anticancer human tumor 171881-019-R-J1-PDC patient-derived invasive breast carcinoma cell line growth inhibition [GQUAD]
Settings: spheroids with HUVEC and MSC; for IC50: curve of first compound; for viability, T/C: stronger effect = lower value
How it was run: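 Viability of tumor cells grown as complex spheroids with endothelial and stromal cells, exposed to drug combinations. Top concentration at or near clinical Cmax (else 10 microM), diluted in half-log increments.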

[1] = second compound 0.0316 µM, first compound 0.0316 µM
[2] = second compound 0.0316 µM, first compound 0.1 µM
[3] = second compound 0.0316 µM, first compound 0.316 µM
[4] = second compound 0.0316 µM, first compound 1 µM
[5] = second compound 0.0316 µM, first compound 3.16 µM
[6] = second compound 0.0316 µM, first compound 10 µM
[7] = second compound 0.1 µM, first compound 0.0316 µM
[8] = second compound 0.1 µM, first compound 0.1 µM
[9] = second compound 0.1 µM, first compound 0.316 µM
[10] = second compound 0.1 µM, first compound 1 µM
[11] = second compound 0.1 µM, first compound 3.16 µM
[12] = second compound 0.1 µM, first compound 10 µM
[13] = second compound 0.316 µM, first compound 0.0316 µM
[14] = second compound 0.316 µM, first compound 0.1 µM
[15] = second compound 0.316 µM, first compound 0.316 µM
[16] = second compound 0.316 µM, first compound 1 µM
[17] = second compound 0.316 µM, first compound 3.16 µM
[18] = second compound 0.316 µM, first compound 10 µM
[19] = second compound 1 µM, first compound 0.0316 µM
[20] = second compound 1 µM, first compound 0.1 µM
[21] = second compound 1 µM, first compound 0.316 µM
[22] = second compound 1 µM, first compound 1 µM
[23] = second compound 1 µM, first compound 3.16 µM
[24] = second compound 1 µM, first compound 10 µM
[25] = second compound 3.16 µM, first compound 0.0316 µM
[26] = second compound 3.16 µM, first compound 0.1 µM
[27] = second compound 3.16 µM, first compound 0.316 µM
[28] = second compound 3.16 µM, first compound 1 µM
[29] = second compound 3.16 µM, first compound 3.16 µM
[30] = second compound 3.16 µM, first compound 10 µM
[31] = second compound 10 µM, first compound 0.0316 µM
[32] = second compound 10 µM, first compound 0.1 µM
[33] = second compound 10 µM, first compound 0.316 µM
[34] = second compound 10 µM, first compound 1 µM
[35] = second compound 10 µM, first compound 3.16 µM
[36] = second compound 10 µM, first compound 10 µM
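Wherever viability, T/C is given: 100% = DMSO vehicle control viability.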

Structure (SMILES): COc1ncnc(C2CC2)c1-c1ncc2cnn(Cc3ccc(-c4nc(C(F)(F)F)cn4C(C)C)cc3)c2n1 + Cc1[nH]c2ccc(F)cc2c1-c1nc2c3cccnc3c3ncccc3c2[nH]1
- IC50 (second compound 0.0316 µM): > 10000 nM
- IC50 (second compound 0.1 µM): > 10000 nM
- IC50 (second compound 0.316 µM): > 10000 nM
- IC50 (second compound 1 µM): > 10000 nM
- IC50 (second compound 3.16 µM): < 31.6 nM
- IC50 (second compound 10 µM): < 31.6 nM
- viability, T/C [1]: 88.4%
- viability, T/C [2]: 93.6%
- viability, T/C [3]: 97.8%
- viability, T/C [4]: 104%
- viability, T/C [5]: 90.5%
- viability, T/C [6]: 88.4%
- viability, T/C [7]: 97.5%
- viability, T/C [8]: 87.9%
- viability, T/C [9]: 99.1%
- viability, T/C [10]: 98.8%
- viability, T/C [11]: 83.1%
- viability, T/C [12]: 81.8%
- viability, T/C [13]: 71.4%
- viability, T/C [14]: 74.2%
- viability, T/C [15]: 75.4%
- viability, T/C [16]: 72%
- viability, T/C [17]: 72.3%
- viability, T/C [18]: 62.7%
- viability, T/C [19]: 65.1%
- viability, T/C [20]: 54.2%
- viability, T/C [21]: 59.4%
- viability, T/C [22]: 60.3%
- viability, T/C [23]: 71.1%
- viability, T/C [24]: 60.3%
- viability, T/C [25]: 8.81%
- viability, T/C [26]: 4.91%
- viability, T/C [27]: 7.33%
- viability, T/C [28]: 8.01%
- viability, T/C [29]: 11.8%
- viability, T/C [30]: 6.52%
- viability, T/C [31]: 40.8%
- viability, T/C [32]: 38.5%
- viability, T/C [33]: 30.7%
- viability, T/C [34]: 50%
- viability, T/C [35]: 42.6%
- viability, T/C [36]: 35.2%

- IC50 (second compound 0.0316 µM): 1020 nM
- IC50 (second compound 0.1 µM): 1720 nM
- IC50 (second compound 0.316 µM): 1860 nM
- IC50 (second compound 1 µM): 3420 nM
- IC50 (second compound 3.16 µM): 3710 nM
- IC50 (second compound 10 µM): 3200 nM
Structure (SMILES): CC(C)n1c(=O)n(C)c2cnc3cc(F)c(-c4ccc(OCCCN5CCCCC5)nc4)cc3c21 + Cc1cnc(CNC(=O)c2c(=O)c3ccc(N4CCCN(C)CC4)nc3n3c2sc2ccccc23)cn1
- viability, T/C [1]: 63.7%
- viability, T/C [2]: 56.6%
- viability, T/C [3]: 59.6%
- viability, T/C [4]: 48.2%
- viability, T/C [5]: 39.1%
- viability, T/C [6]: 16.1%
- viability, T/C [7]: 62.4%
- viability, T/C [8]: 62.2%
- viability, T/C [9]: 58.6%
- viability, T/C [10]: 55.9%
- viability, T/C [11]: 43.8%
- viability, T/C [12]: 17.4%
- viability, T/C [13]: 66.6%
- viability, T/C [14]: 65%
- viability, T/C [15]: 60.5%
- viability, T/C [16]: 58.9%
- viability, T/C [17]: 43.3%
- viability, T/C [18]: 20.8%
- viability, T/C [19]: 66.7%
- viability, T/C [20]: 63.5%
- viability, T/C [21]: 66.5%
- viability, T/C [22]: 57.7%
- viability, T/C [23]: 53.2%
- viability, T/C [24]: 25.4%
- viability, T/C [25]: 62.1%
- viability, T/C [26]: 63%
- viability, T/C [27]: 66.5%
- viability, T/C [28]: 60.7%
- viability, T/C [29]: 53.1%
- viability, T/C [30]: 28.2%
- viability, T/C [31]: 61.8%
- viability, T/C [32]: 64.2%
- viability, T/C [33]: 61.7%
- viability, T/C [34]: 58.7%
- viability, T/C [35]: 50.4%
- viability, T/C [36]: 25.3%

- IC50 (second compound 0.0316 µM): < 31.6 nM
- IC50 (second compound 0.1 µM): < 31.6 nM
- IC50 (second compound 0.316 µM): < 31.6 nM
- IC50 (second compound 1 µM): < 31.6 nM
- IC50 (second compound 3.16 µM): 36.8 nM
- IC50 (second compound 10 µM): < 31.6 nM
Structure (SMILES): CC1COCCN1c1cc(-c2ccnn2C)c2ccnc(-c3ccn[nH]3)c2n1 (stereo unspecified) + Cc1cnc(CNC(=O)c2c(=O)c3ccc(N4CCCN(C)CC4)nc3n3c2sc2ccccc23)cn1
- viability, T/C [1]: 41.9%
- viability, T/C [2]: 22.4%
- viability, T/C [3]: 13.9%
- viability, T/C [4]: 8.64%
- viability, T/C [5]: 5.53%
- viability, T/C [6]: 5.12%
- viability, T/C [7]: 42.5%
- viability, T/C [8]: 24.9%
- viability, T/C [9]: 14.8%
- viability, T/C [10]: 8.31%
- viability, T/C [11]: 5.49%
- viability, T/C [12]: 5.8%
- viability, T/C [13]: 41.5%
- viability, T/C [14]: 27.8%
- viability, T/C [15]: 17.2%
- viability, T/C [16]: 9.26%
- viability, T/C [17]: 5.7%
- viability, T/C [18]: 5.04%
- viability, T/C [19]: 46.4%
- viability, T/C [20]: 33%
- viability, T/C [21]: 21.6%
- viability, T/C [22]: 11.2%
- viability, T/C [23]: 6.82%
- viability, T/C [24]: 4.69%
- viability, T/C [25]: 52.4%
- viability, T/C [26]: 35.1%
- viability, T/C [27]: 25.4%
- viability, T/C [28]: 13.4%
- viability, T/C [29]: 6.44%
- viability, T/C [30]: 4.66%
- viability, T/C [31]: 48.2%
- viability, T/C [32]: 38.8%
- viability, T/C [33]: 24.1%
- viability, T/C [34]: 13.9%
- viability, T/C [35]: 7.41%
- viability, T/C [36]: 4.56%
